Reference: patent US12098154B2, “Inhibitors of cyclin-dependent kinases” (Dana-Farber Cancer Institute, Inc., priority 2015, dated 2024)

Legend:
CDK7/CycH = CDK7/CycH (Homo sapiens, UniProt P50613); assay: CDK7/CycH inhibition (Tables A1, A2); assay type: biochemical
CDK9/CycT = CDK9/CycT (Homo sapiens, UniProt P50750); assay: CDK9/CycT inhibition (Tables A1, A2); assay type: biochemical
CDK2/CycA = CDK2/CycA (Homo sapiens, UniProt P24941); assay: CDK2/CycA inhibition (Tables A1, A2); assay type: biochemical
Jurkat cells = assay: Jurkat proliferation assay (CellTiter-Glo); assay type: cell-based; conditions: Homo sapiens, Jurkat; read-out: Jurkat IC50
Protocol: (§1) Jurkat cells were seeded at a density of 25,000 cells/well in 96-well plates. Cells were then treated with the indicated compounds in a 10-pt dose escalation format from 1 nM to 10 μM or DMSO control for 72 hours. After 72 hours, the cells were assayed using CellTiter-Glo Luminescent Cell Viability Assay (Promega) to determine cell viability by measuring the amount of ATP present in each sample cell population, which is an indicator of cell metabolic activity. […] All data points were performed in biological triplicate. Error bars are +/−SD.
as §1, with “hrs.” for “hours.”, “hrs,” for “hours, the”

CDK9/CycT, sequence (P50750 whole entry): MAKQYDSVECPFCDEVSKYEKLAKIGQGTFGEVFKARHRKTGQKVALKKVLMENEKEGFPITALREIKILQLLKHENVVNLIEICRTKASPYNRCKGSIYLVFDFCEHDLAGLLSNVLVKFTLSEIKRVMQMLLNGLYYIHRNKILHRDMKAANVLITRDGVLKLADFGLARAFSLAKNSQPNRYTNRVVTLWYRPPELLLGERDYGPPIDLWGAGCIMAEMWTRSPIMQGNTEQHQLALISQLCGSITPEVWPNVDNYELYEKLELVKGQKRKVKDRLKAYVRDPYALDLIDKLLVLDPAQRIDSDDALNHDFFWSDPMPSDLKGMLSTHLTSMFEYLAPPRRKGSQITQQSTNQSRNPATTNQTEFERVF
CDK9/CycT, sequence (O60563 whole entry partner): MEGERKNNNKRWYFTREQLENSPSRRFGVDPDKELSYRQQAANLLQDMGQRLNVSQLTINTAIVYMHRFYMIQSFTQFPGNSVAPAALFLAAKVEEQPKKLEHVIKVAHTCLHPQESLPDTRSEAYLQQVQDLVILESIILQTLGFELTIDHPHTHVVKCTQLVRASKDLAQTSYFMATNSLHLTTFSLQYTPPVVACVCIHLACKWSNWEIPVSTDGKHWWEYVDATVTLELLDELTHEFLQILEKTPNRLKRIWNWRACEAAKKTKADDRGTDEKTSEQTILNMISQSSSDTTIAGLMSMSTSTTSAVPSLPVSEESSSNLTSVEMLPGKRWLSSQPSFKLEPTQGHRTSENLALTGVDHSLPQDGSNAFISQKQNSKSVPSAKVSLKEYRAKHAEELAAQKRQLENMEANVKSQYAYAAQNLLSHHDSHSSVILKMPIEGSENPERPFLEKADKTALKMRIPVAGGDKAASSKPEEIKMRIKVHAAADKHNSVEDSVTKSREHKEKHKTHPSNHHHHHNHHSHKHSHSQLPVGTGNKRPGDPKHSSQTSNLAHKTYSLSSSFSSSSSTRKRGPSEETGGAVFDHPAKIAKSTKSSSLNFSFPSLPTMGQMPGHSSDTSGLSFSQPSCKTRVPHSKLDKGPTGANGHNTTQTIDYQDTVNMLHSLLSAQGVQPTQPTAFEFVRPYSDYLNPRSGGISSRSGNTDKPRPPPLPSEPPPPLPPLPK
CDK7/CycH, sequence (P50613 whole entry): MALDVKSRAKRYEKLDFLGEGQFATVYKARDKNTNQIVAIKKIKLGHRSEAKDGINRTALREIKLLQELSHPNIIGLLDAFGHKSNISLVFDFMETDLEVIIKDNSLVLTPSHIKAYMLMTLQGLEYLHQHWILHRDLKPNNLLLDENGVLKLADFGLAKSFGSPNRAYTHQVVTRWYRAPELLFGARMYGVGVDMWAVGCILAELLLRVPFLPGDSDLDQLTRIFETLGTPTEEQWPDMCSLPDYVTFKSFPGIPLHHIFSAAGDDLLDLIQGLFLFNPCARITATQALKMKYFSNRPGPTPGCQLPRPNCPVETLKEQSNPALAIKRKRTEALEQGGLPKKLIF
CDK7/CycH, sequence (P51946 whole entry partner): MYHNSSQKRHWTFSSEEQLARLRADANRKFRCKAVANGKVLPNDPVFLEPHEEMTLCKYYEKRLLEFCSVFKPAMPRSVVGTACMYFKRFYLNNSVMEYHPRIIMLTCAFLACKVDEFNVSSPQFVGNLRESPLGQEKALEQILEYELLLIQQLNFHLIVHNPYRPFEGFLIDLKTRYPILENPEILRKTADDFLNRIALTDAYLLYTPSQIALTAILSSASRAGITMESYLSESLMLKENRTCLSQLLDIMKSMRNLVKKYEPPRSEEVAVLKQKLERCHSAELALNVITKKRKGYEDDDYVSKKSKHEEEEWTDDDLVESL

| Structure (SMILES) | IC50 (CDK7/CycH) | IC50 (CDK9/CycT) | IC50 (CDK2/CycA) | IC50 (Jurkat cells) |
| --- | --- | --- | --- | --- |
| C=CC(=O)Nc1ccc(C(=O)N2CCCC(Nc3cc(NC4CCC(N(C)C)CC4)nc4c(CC)cnn34)C2)cc1 (centres unmarked) [THZ-4-148-1] | > 10000 nM | 1710 nM | 7050 nM |  |
| C=CC(=O)Nc1ccc(C(=O)Nc2cccc(Nc3cc(N[C@H]4CC[C@H](N(C)C)CC4)nc4c(CC)cnn34)c2)cc1 [SB1-E-22, 4-Acrylamido-N-(3-(5-((1r,4r)-4-(dimethylamino)cyclohexylamino)-3-ethylpyrazolo[1,5-a]pyrimidin-7-ylamino)phenyl)benzamide] | 246 nM | 88.9 nM | 28300 nM |  |
| CC(C)n1cnc2c(Nc3cccc(NC(=O)/C=C/CN(C)C)c3)nc(N[C@H]3CC[C@H](N(C)C)CC3)nc21 [THZ-5-18-1] | 121 nM | 1530 nM |  | 1340 nM |
| C=CC(=O)NC1CCCC(Nc2nc(N[C@H]3CC[C@H](N(C)C)CC3)nc3c(CC)cnn23)C1 (some centres unmarked) [MFH-2-78-1, N-(3-((2-(((1r,4r)-4-(dimethylamino)cyclohexyl)amino)-8-ethylpyrazolo[1,5-a][1,3,5]triazin-4-yl)amino)cyclohexyl)acrylamide] | 842 nM | 68.7 nM | > 1000 nM |  |
| C=CC(=O)Nc1cccc(Nc2cc(N3CCCC[C@H]3CCO)nc3c(CC)cnn23)c1 [MFH-1-141-1, (S)—N-(3-(3-ethyl-5-(2-(2-hydroxyethyl)piperidin-1-yl)pyrazolo[1,5-a]pyrimidin-7-ylamino)phenyl)acrylamide] | 1210 nM | 23.9 nM | 932 nM |  |
| C=CC(=O)N[C@H]1CC[C@H](Nc2cc(N3CCCC[C@H]3CCO)nc3c(CC)cnn23)CC1 [MFH-1-175-1, N-((1S,4r)-4-((3-ethyl-5-((S)-2-(2-hydroxyethyl)piperidin-1-yl)pyrazolo[1,5-a]pyrimidin-7-yl)amino)cyclohexyl)acrylamide] | 442 nM | 48.2 nM | 1080 nM |  |
| C=CC(=O)Nc1cccc(CNc2nc(N[C@H]3CC[C@H](N(C)C)CC3)nc3c(CC)cnn23)c1 [MFH-2-67-1, N-(3-(((2-(((1r,4r)-4-(dimethylamino)cyclohexyl)amino)-8-ethylpyrazolo[1,5-a][1,3,5]triazin-4-yl)amino)methyl)phenyl)acrylamide] | 23.7 nM | 103 nM | 1020 nM |  |
| C=CC(=O)Nc1cccc(Nc2cc(N3CCCC(N)C3)nc3c(CC)cnn23)c1 (centres unmarked) [MFH-3-140-1, N-(3-(5-(3-aminopiperidin-1-yl)-3-ethylpyrazolo[1,5-a]pyrimidin-7-ylamino)phenyl)acrylamide] | 356 nM | 465 nM | 4190 nM |  |
| C=CC(=O)Nc1ccc(C(=O)N2CCCC(Nc3cc(N4CCCC(N)C4)nc4c(CC)cnn34)C2)cc1 (centres unmarked) [THZ-4-141-1] | 3600 nM | 3570 nM | > 1000 nM |  |
| C=CC(=O)Nc1ccc(C(=O)Nc2cccc(Nc3cc(N4CCCCC4CCO)nc4c(CC)cnn34)c2)cc1 (centres unmarked) [SB1-E-24, 4-Acrylamido-N-(3-(3-ethyl-5-(2-(2-hydroxyethyl)piperidin-1-yl)pyrazolo[1,5-a]pyrimidin-7-ylamino)phenyl)benzamide] | 774 nM | 140 nM | 1260 nM |  |
| C=CC(=O)NC1CCCC(Nc2nc(N[C@H]3CC[C@H](N(C)C)CC3)nc3c2ncn3C(C)C)C1 (some centres unmarked) [SB1-E-15, N-(3-(2-((1r,4r)-4-(Dimethylamino)cyclohexylamino)-9-isopropyl-9H-purin-6-ylamino)cyclohexyl)acrylamide] | 763 nM | 58.9 nM | 1480 nM |  |
| C=CC(=O)Nc1cccc(Nc2nc(N[C@H]3CC[C@@H](N(C)C)CC3)nc3c2ncn3C(C)C)c1 [E-1(SB1-E-14), N-(3-(2-((1s,4s)-4-(Dimethylamino)cyclohexylamino)-9-isopropyl-9H-purin-6-ylamino)phenyl)acrylamide] | 254 nM | 1360 nM | 735 nM |  |
| C=CC(=O)Nc1ccc(C(=O)N2CCCC(Nc3nc(N4CCCCC4CCO)nc4c3ncn4C(C)C)C2)cc1 (centres unmarked) [THZ-4-149-1] | 4430 nM | 2290 nM | > 1000 nM |  |
| C=CC(=O)Nc1ccc(C(=O)Nc2cccc(Nc3nc(N[C@H]4CC[C@H](N(C)C)CC4)nc4c3ncn4C(C)C)c2)cc1 [THZ-5-38-1, 4-Acrylamido-N-(3-((2-((trans-4-(dimethylamino)cyclohexyl)amino)-9-isopropyl-9H-purin-6-yl)amino)phenyl)benzamide] | 25.9 nM | 220 nM | 563 nM |  |
| CC(C)n1cnc2c(Nc3cccc(NC(=O)c4ccc(NC(=O)/C=C/CN(C)C)cc4)c3)nc(N[C@H]3CC[C@H](N(C)C)CC3)nc21 [THZ-3-49-1, 4-((E)-4-(Dimethylamino)but-2-enamido)-N-(3-((2-(((1r,4r)-4-(dimethylamino)cyclohexyl)amino)-9-isopropyl-9H-purin-6-yl)amino)phenyl)benzamide] | 9.43 nM | 445 nM |  | 4030 nM |
| C=CC(=O)Nc1cccc(Nc2nc(N3CCCCC3CCO)nc3c2ncn3C(C)C)c1 (centres unmarked) [THZ-4-134-1, N-(3-((2-(2-(2-Hydroxyethyl)piperidin-1-yl)-9-isopropyl-9H-purin-6-yl)amino)phenyl)acrylamide] | 1180 nM | 379 nM | 163 nM | 522 nM |
| C=CC(=O)N[C@H]1CC[C@@H](Nc2cc(N3CCCC[C@H]3CCO)nc3c(CC)cnn23)CC1 [MFH-1-169-1, N-((1R,4s)-4-((3-ethyl-5-((S)-2-(2-hydroxyethyl)piperidin-1-yl)pyrazolo[1,5-a]pyrimidin-7-yl)amino)cyclohexyl)acrylamide] | 7250 nM | 135 nM | 3880 nM |  |
| C=CC(=O)Nc1cccc(CNc2cc(N3CCCC[C@H]3CCO)nc3c(CC)cnn23)c1 [MFH-1-49-1, (S)—N-(3-(((3-ethyl-5-(2-(2-hydroxyethyl)piperidin-1-yl)pyrazolo[1,5-a]pyrimidin-7-yl)amino)methyl)phenyl)acrylamide] | 165 nM |  | 27.6 nM |  |
| C=CC(=O)Nc1cccc(CNc2cc(N3CCCC[C@@H]3CCO)nc3c(CC)cnn23)c1 [MFH-1-56-1, (R)—N-(3-((3-ethyl-5-(2-(2-hydroxyethyl)piperidin-1-yl)pyrazolo[1,5-a]pyrimidin-7-ylamino)methyl)phenyl)acrylamide] | 345 nM |  | 1530 nM |  |
| C=CC(=O)Nc1ccc(C(=O)Nc2cccc(Nc3cc(N[C@H]4CC[C@H](N(C)C)CC4)nc4c(C(C)C)cnn34)c2)cc1 [SB1-E-25, 4-Acrylamido-N-(3-(5-((1r,4r)-4-(dimethylamino)cyclohexylamino)-3-isopropylpyrazolo[1,5-a]pyrimidin-7-ylamino)phenyl)benzamide] | 410 nM | 387 nM | 33400 nM |  |
| C=CC(=O)NC1CCCC(Nc2cc(N3CCCC[C@H]3CCO)nc3c(CC)cnn23)C1 (stereo partly drawn) [MFH-1-167-1, N-(3-(3-ethyl-5-((S)-2-(2-hydroxyethyl)piperidin-1-yl)pyrazolo[1,5-a]pyrimidin-7-ylamino)cyclohexyl)acrylamide] | 739 nM | 24.7 nM | 328 nM |  |
| C=CC(=O)Nc1ccc(Nc2cc(N3CCCC[C@H]3CCO)nc3c(CC)cnn23)cc1 [MFH-1-187-1, (S)—N-(4-((3-ethyl-5-(2-(2-hydroxyethyl)piperidin-1-yl)pyrazolo[1,5-a]pyrimidin-7-yl)amino)phenyl)acrylamide] | 279 nM | 23.5 nM | 171 nM |  |
| C=CC(=O)NCc1cccc(Nc2nc(N[C@H]3CC[C@H](N(C)C)CC3)nc3c2ncn3C(C)C)c1 [SB1-E-16, N-(3-(2-((1r,4r)-4-(Dimethylamino)cyclohexylamino)-9-isopropyl-9H-purin-6-ylamino)benzyl)acrylamide] | 255 nM | 116 nM | 30.3 nM |  |
| CC(C)n1cnc2c(Nc3cccc(NC(=O)c4ccc(NC(=O)/C=C/CN(C)C)cc4)c3)nc(N3CCCC(N)C3)nc21 (centres unmarked) [THZ-4-119-1, (E)-N-(3-((2-(3-Aminopiperidin-1-yl)-9-isopropyl-9H-purin-6-yl)amino)phenyl)-4-(4-(dimethylamino)but-2-enamido)benzamide] | 11.5 nM | 519 nM |  | 1960 nM |
| C=CC(=O)Nc1cccc(Nc2cc(N3CCCC[C@@H]3CCO)nc3c(CC)cnn23)c1 [MFH-1-143-1, (R)—N-(3-(3-ethyl-5-(2-(2-hydroxyethyl)piperidin-1-yl)pyrazolo[1,5-a]pyrimidin-7-ylamino)phenyl)acrylamide] | 2510 nM | 859 nM | > 10000 nM |  |
| C=CC(=O)Nc1ccc(C(=O)Nc2cccc(Nc3nc(N4CCCCC4CCO)nc4c(CC)cnn34)c2)cc1 (centres unmarked) [SB1-E-19, 4-Acrylamido-N-(3-(8-ethyl-2-(2-(2-hydroxyethyl)piperidin-1-yl)pyrazolo[1,5-a][1,3,5]triazin-4-ylamino)phenyl)benzamide] | 383 nM | 123 nM | 295 nM |  |
| C=CC(=O)Nc1cccc(Nc2nc(N3CCCC[C@H]3CCO)nc3c(CC)cnn23)c1 [MFH-2-53-1, (S)—N-(3-(8-ethyl-2-(2-(2-hydroxyethyl)piperidin-1-yl)pyrazolo[1,5-a][1,3,5]triazin-4-ylamino)phenyl)acrylamide] | 1100 nM | 61.6 nM | 53.6 nM |  |
